In data set [1] the test system is A375 human melanoma cells. In words: Karyomorphosis test. The data set is classed as cell-based. The settings on record: test compound 10 μM and 1 μM, 48 hr, nuclei stained with propidium iodide. The procedure: A375 human melanoma cells (2×10^4) (obtained from Japanese Foundation for Cancer Research) were incolulated on a culture slide (manufactured by Falcon) and were cultured at 37° C. After the elapse of 5 hr from the initiation of the cultivation, the test compound was added to 10 μM and 1 μM, and the cultivation was continued for additional 48 hr. After the fixation of cells, 50 μg/ml propidium iodide solution containing ribonuclease (200 μg/ml) was added to stain nuclei. The stained nuclei were observed under a fluorescent microscope to analyze the nuclei for abnormality of karyomorphosis.

The subject of data set [2] is activation of MAPK within vascular endothelial cells induced by VEGF stimulation. The data set is described as follows: Inhibitory activity against activation of MAPK within vascular endothelial cells induced by VEGF stimulation. In kind it is cell-based. The settings on record: human funicular venous vascular endothelial cells, VEGF 50 ng/ml, phosphorylated MAPK by immunoblotting. In a few lines: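 Serum-starved (0.5% FCS, 24 h) human umbilical vein endothelial cells pretreated with compound 1 h at 37 °C, then stimulated with 50 ng/ml recombinant human VEGF for 8 min.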

pIC50: −log10 of the molar value.

For `COc1cc2nccc(Oc3c(Cl)cc(NC(=O)Nc4ccc(F)cc4F)cc3Cl)c2cc1OC` [Example 49, N-{3,5-Dichloro-4-[(6,7-dimethoxy-4-quinolyl)oxy]phenyl}-N′-(2,4-difluorophenyl)urea], the Change in morphosis entry in data set [1] is reported as “(−) (the change in karyomorphosis of cells did not take place at 10 μM)”. In data set [2] (Endothelial cell), this compound had a pIC50 of 8.37.
On the same counts, the results for `COc1ccccc1NC(=O)Nc1cc(C)c(Oc2ccnc3cc(OC)c(OC)cc23)cc1C` [Example 43, N-{4-[(6,7-Dimethoxy-4-quinolyl)oxy]-2,5-dimethylphenyl}-N′-(2-methoxyphenyl)urea] are “(−) (the change in karyomorphosis of cells did not take place at 10 μM)” and 8.42.
In the case of `COCCOc1cc2nccc(Oc3ccc(NC(=O)Nc4ccccc4OC)c(Cl)c3)c2cc1OC` [Example 55, N-(2-Chloro-4-{[6-methoxy-7-(2-methoxyethoxy)-4-quinolyl]oxy}phenyl)-N′-(2-methoxyphenyl)urea], the Change in morphosis result in data set [1] is reported as “(−) (the change in karyomorphosis of cells did not take place at 10 μM)”. For the same compound, the pIC50 in data set [2] (Endothelial cell) was 8.55.
On the same counts, the results for `COCCOc1cc2nccc(Oc3cc(C)c(NC(=O)Nc4ccccc4OC)cc3C)c2cc1OC` [Example 59, N-(4-{[6-Methoxy-7-(2-methoxyethoxy)-4-quinolyl]oxy}-2,5-dimethylphenyl)-N′-(2-methoxyphenyl)-urea] are “(−) (the change in karyomorphosis of cells did not take place at 10 μM)” and 8.24.
As to `COc1ccc(NC(=O)Nc2ccc(Oc3ccnc4cc(OC)c(OC)cc34)c(C)c2C)cc1` [Example 36, N-{4-[(6,7-Dimethoxy-4-guinolyl)oxy]-2,3-dimethylphenyl}-N′-(4-methoxyphenyl)urea], in data set [1], the Change in morphosis result is listed as “(−) (the change in karyomorphosis of cells did not take place at 10 μM)”. In data set [2], this compound gave a pIC50 of 8.48.
As for `COc1cc2nccc(Oc3cc(C)c(NC(=O)Nc4ccc(F)cc4C)cc3C)c2cc1OC` [Example 40, N-{4-[(6,7-Dimethoxy-4-quinolyl)oxy]-2,5-dimethylphenyl}-N′-(4-fluoro-2-methylphenyl)urea], in data set [1], the Change in morphosis result is “(−) (the change in karyomorphosis of cells did not take place at 10 μM)”. This compound gave a negative logarithm of the IC50 (pIC50) in data set [2] (Endothelial cell) of 7.92.
In the case of `COc1cc2nccc(Oc3ccc(NC(=O)Nc4cccc(F)c4OC)c(C)c3C)c2cc1OC` [Example 26, N-{4-[(6,7-Dimethoxy-4-guinolyl)oxy]-2,3-dimethylphenyl}-N′-(3-fluoro-2-methoxyphenyl)urea], in data set [1], the Change in morphosis entry is “(−) (the change in karyomorphosis of cells did not take place at 10 μM)”. The compound further had a pIC50 in data set [2] of 8.28.
Regarding `COc1cc2c(Oc3cc(C)c(NC(=O)Nc4ccc(F)cc4F)cc3C)ccnc2cc1OCCN1CCOCC1` [Example 52, N-(2,4-Difluorophenyl)-N′-(4-{[6-methoxy-7-(2-morpholinoethoxy)-4-guinolyl]oxy}-2,5-dimethylphenyl)urea], the Change in morphosis result in data set [1] was “(−) (the change in karyomorphosis of cells did not take place at 10 μM)”. Also, the pIC50 in data set [2] was 8.36.
Take `COc1ccc(NC(=O)Nc2ccc(Oc3ccnc4cc(OC)c(OC)cc34)cc2Cl)cc1.Cl` [Example 22, N-{2-Chloro-4-[(6,7-dimethoxy-4-quinolyl)oxy]phenyl}-N′-(4-methoxyphenyl)urea hydrochloride]: the Change in morphosis entry in data set [1] is recorded as “(−) (the change in karyomorphosis of cells did not take place at 10 μM)”. In data set [2] (Endothelial cell), the pIC50 was 9.40.
Consider `COc1cc2nccc(Oc3ccc(NC(=O)Nc4ccc(Cl)cc4C)c(C)c3C)c2cc1OC` [Example 32, N-(4-Chloro-2-methylphenyl)-N′-{4-[(6,7-dimethoxy-4-guinolyl)oxy]-2,3-dimethylphenyl}urea], for which, in data set [1], the Change in morphosis result was “(−) (the change in karyomorphosis of cells did not take place at 10 μM)”. In data set [2], this compound had a pIC50 of 8.14.
In the case of `COc1ccccc1NC(=O)Nc1ccc(Oc2ccnc3cc(OC)c(OC)cc23)c(C)c1C` [Example 30, N-{4-[(6,7-Dimethoxy-4-guinolyl)oxy]-2,3-dimethylphenyl}-N′-(2-methoxyphenyl)urea], the Change in morphosis result in data set [1] is given as “(−) (the change in karyomorphosis of cells did not take place at 10 μM)”. This compound gave a pIC50 in data set [2] of 8.77.
Consider `COc1cc2nccc(Oc3ccc(NC(=O)Nc4cccc(C)n4)c(Cl)c3)c2cc1OC` [Example 21, N-{2-Chloro-4-[(6,7-dimethoxy-4-quinolyl)oxy]phenyl}-N′-(6-methyl-2-pyridyl)urea], for which the Change in morphosis entry in data set [1] is recorded as “(−) (the change in karyomorphosis of cells did not take place at 10 μM)”. This compound showed a pIC50 in data set [2] (Endothelial cell) of 8.47.
Consider `COc1cc2nccc(Oc3ccc(NC(=O)Nc4ccccc4C)c(C)c3C)c2cc1OC` [Example 31, N-{4-[(6,7-Dimethoxy-4-guinolyl)oxy]-2,3-dimethylphenyl}-N′-(2-methylphenyl)urea], for which the Change in morphosis result in data set [1] is on record as “(−) (the change in karyomorphosis of cells did not take place at 10 μM)”. This compound also showed a pIC50 in data set [2] of 8.60.
`COc1cc2nccc(Oc3ccc(NC(=O)Nc4cccc(C)n4)c(C)c3C)c2cc1OC` [Example 35, N-{4-[(6,7-Dimethoxy-4-quinolyl)oxy]-2,3-dimethylphenyl}-N′-(6-methyl-2-pyridyl)urea]: the Change in morphosis entry in data set [1] is on record as “(−) (the change in karyomorphosis of cells did not take place at 10 μM)”. This compound showed a pIC50 in data set [2] (Endothelial cell) of 8.43.
Take `COc1ccc(NC(=O)Nc2cc(C)c(Oc3ccnc4cc(OC)c(OC)cc34)cc2C)c(OC)n1` [Example 45, N-(2,6-Dimethoxy-3-pyridyl)-N′-{4-[(6,7-dimethoxy-4-quinolyl)oxy]-2,5-dimethylphenyl}urea]: the Change in morphosis result in data set [1] is reported as “(−) (the change in karyomorphosis of cells did not take place at 10 μM)”. In data set [2] (Endothelial cell), this compound gave a negative logarithm of the IC50 (pIC50) of 8.70.
Regarding `COCCOc1cc2nccc(Oc3cc(C)c(NC(=O)Nc4ccc(F)cc4F)cc3C)c2cc1OC` [Example 58], the Change in morphosis entry in data set [1] is recorded as “(−) (the change in karyomorphosis of cells did not take place at 10 μM)”. In addition, the negative-log IC50 (pIC50) in data set [2] was 8.29.
Consider `COc1cc2nccc(Oc3ccc(NC(=O)Nc4ccc(C)cn4)c(C)c3C)c2cc1OC` [Example 34, N-{4-[(6,7-Dimethoxy-4-guinolyl)oxy]-2,3-dimethylphenyl}-N′-(5-methyl-2-pyridyl)urea], for which, in data set [1], the Change in morphosis entry is listed as “(−) (the change in karyomorphosis of cells did not take place at 10 μM)”. The compound also showed a negative logarithm of the IC50 (pIC50) in data set [2] of 8.38.
On to `COc1cc2nccc(Oc3cc(C)c(NC(=O)Nc4cccc(F)c4OC)cc3C)c2cc1OC` [Example 41, N-{4-[(6,7-Dimethoxy-4-quinolyl)oxy]-2,5-dimethylphenyl}-N′-(3-fluoro-2-methoxyphenyl)urea], for which the Change in morphosis result in data set [1] is on record as “(−) (the change in karyomorphosis of cells did not take place at 10 μM)”. In data set [2] (Endothelial cell), this compound showed a pIC50 of 8.31.
As to `COc1cc2nccc(Oc3ccc(NC(=O)Nc4ccc(C)cn4)c(Cl)c3)c2cc1OC` [Example 20, N-{2-Chloro-4-[(6,7-dimethoxy-4-guinolyl)oxy]phenyl}-N′-(5-methyl-2-pyridyl)urea], the Change in morphosis entry in data set [1] was “(−) (the change in karyomorphosis of cells did not take place at 10 μM)”. This compound also had a pIC50 in data set [2] of 8.07.
On to `COc1cc2nccc(Oc3cc(C)c(NC(=O)Nc4ccccc4C)cc3C)c2cc1OC` [Example 42, N-{4-[(6,7-Dimethoxy-4-guinolyl)oxy]-2,5-dimethylphenyl}-N′-(2-methylphenyl)urea], for which the Change in morphosis result in data set [1] is recorded as “(−) (the change in karyomorphosis of cells did not take place at 10 μM)”. In addition, the pIC50 in data set [2] was 8.23.
Turning to `COc1ccccc1NC(=O)Nc1cc(C)c(Oc2ccnc3cc(OCCN4CCOCC4)c(OC)cc23)cc1C` [Example 53, N-(4-{[6-Methoxy-7-(2-morpholinoethoxy)-4-quinolyl]oxy}-2,5-dimethylphenyl)-N′-(2-methoxyphenyl)urea], the Change in morphosis entry in data set [1] is recorded as “(−) (the change in karyomorphosis of cells did not take place at 10 μM)”. The compound further gave a pIC50 in data set [2] (Endothelial cell) of 8.23.
On the same counts, the results for `COc1ccc(NC(=O)Nc2cc(C)c(Oc3ccnc4cc(OC)c(OC)cc34)cc2C)cc1` [Example 46, N-{4-[(6,7-Dimethoxy-4-quinolyl)oxy]-2,5-dimethylphenyl}-N′-(4-methoxyphenyl)urea] are “(−) (the change in karyomorphosis of cells did not take place at 10 μM)” and 8.37.
As to `COc1cc2nccc(Oc3ccc(NC(=O)Nc4ccccn4)c(C)c3C)c2cc1OC` [Example 33, N-{4-[(6,7-Dimethoxy-4-guinolyl)oxy]-2,3-dimethylphenyl}-N′-(2-pyridyl)urea], the Change in morphosis result in data set [1] is “(−) (the change in karyomorphosis of cells did not take place at 10 μM)”. Further, the pIC50 in data set [2] was 8.46.
`COc1cc2nccc(Oc3cc(C)c(NC(=O)Nc4ccc(Cl)cc4C)cc3C)c2cc1OC` [Example 39, N-(4-chloro-2-methylphenyl)-N′-{4-[(6,7-dimethoxy-4-quinolyl)oxy]-2,5-dimethylphenyl}urea]: in data set [1], the Change in morphosis result was “(−) (the change in karyomorphosis of cells did not take place at 10 μM)”.
As to `CCCNC(=O)Nc1ccc(Oc2ccnc3cc(OC)c(OC)cc23)cc1[N+](=O)[O-]` [Example 47, N-{4-[(6,7-Dimethoxy-4-guinolyl)oxy]-2-nitrophenyl}-N′-propylurea], in data set [1], the Change in morphosis entry is recorded as “(−) (the change in karyomorphosis of cells did not take place at 10 μM)”. In data set [2], this compound gave a pIC50 of 8.40.

As a reminder, the pIC50 is the negative decadic logarithm of the IC50, by convention in mol/L. High values mean a small IC50, low ones a large IC50.

The values above are taken from patent US7169789B2 (Kirin Beer Kabushiki Kaisha, priority 1999, dated 2007).
